Results: patent US6274715A, “Tricyclic erythromycin derivatives” (priority 1997, dated 2001)
≈ marks a conversion by molar mass, not a printed value.

Key:
Assay type in all cases: cell-based
[1] = system: STAPHYLOCOCCUS AUREUS ATCC 6538P; experiment: In vitro antibacterial activity, MIC, BHI agar dilution; settings: S. aureus ATCC 6538P, 35-37° C., 20 to 24 hours, unit assumed
[2] = system: STAPHYLOCOCCUS AUREUS A5177; experiment: as above
[3] = system: STAPHYLOCOCCUS AUREUS A-5278; experiment: as above; settings: S. aureus A-5278, unit assumed
[4] = system: STAPHYLOCOCCUS AUREUS CMX 642A; experiment: as above; settings: S. aureus CMX 642A, unit assumed
[5] = system: STAPHYLOCOCCUS AUREUS NCTC10649M; experiment: as above; settings: S. aureus NCTC10649M, unit assumed
[6] = system: STAPHYLOCOCCUS AUREUS CMX 553; experiment: as above; settings: S. aureus CMX 553, unit assumed
[7] = system: STAPHYLOCOCCUS AUREUS 1775; experiment: as above; settings: S. aureus 1775, unit assumed
[8] = system: STAPHYLOCOCCUS EPIDERMIDIS 3519; settings: S. epidermidis 3519; BHI agar; unit assumed
[9] = system: EN[…] ATCC 8043; experiment: In vitro antibacterial activity, MIC, BHI agar dilution; settings: E. faecium ATCC 8043, unit assumed
In short: (§1)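 BHI agar dilution: twelve plates with successive compound dilutions, inoculated by replicator with 1:100 culture dilutions (1:10 for slow growers such as Micrococcus and Streptococcus), 20 to 24 hours at 35-37° C. MIC was the lowest concentration giving no growth, slight haze or sparse isolated colonies versus drug-free control; erythromycin A as class reference.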

[10] = system: M[…] ATCC 4698; experiment: as above; settings: M. luteus ATCC 4698, unit assumed
In short: as §1

[11] = system: M[…] ATCC 9341; experiment: as above; settings: M. luteus ATCC 9341, unit assumed
In short: as §1

[12] = system: STR[…] 508; experiment: as above; settings: S. agalactiae CMX 508, unit assumed
In short: as §1

[13] = system: STREPTOCOCCUS BOVIS A-5169; experiment: as above; settings: S. bovis A-5169, unit assumed
[14] = system: STREPTOCOCCUS PYOGENES EES61; experiment: as above; settings: S. pyogenes EES61, unit assumed
[15] = system: STREPTOCOCCUS PYOGENES 930; experiment: as above; settings: S. pyogenes 930, unit assumed
[16] = system: STREPTOCOCCUS PYOGENES PIU 2548; experiment: as above; settings: S. pyogenes PIU 2548, unit assumed
[17] = system: ESCHERICHIA COLI JUHL; settings: E. coli JUHL; BHI agar; unit assumed
[18] = system: ESCHERICHIA COLI SS; experiment: In vitro antibacterial activity, MIC, BHI agar dilution; settings: E. coli SS, unit assumed
[19] = system: ESCHERICHIA COLI DC-2; experiment: as above; settings: E. coli DC-2, unit assumed
[20] = system: ESCHERICHIA COLI H560; experiment: as above; settings: E. coli H560, unit assumed
[21] = system: ESCHERICHIA COLI KNK 437; settings: E. coli KNK 437; BHI agar; unit assumed
[22] = system: ENTEROBACTER AEROGENES ATCC 13048; experiment: In vitro antibacterial activity, MIC, BHI agar dilution; settings: E. aerogenes ATCC 13048, unit assumed
[23] = system: KLEBSIELLA PNEUMONIAE ATCC 8045; experiment: as above; settings: K. pneumoniae ATCC 8045, unit assumed
[24] = system: PROVIDENCIA STUARTII CMX 640; settings: P. stuartii CMX 640; BHI agar; unit assumed
[25] = system: PSEUDOMONAS AERUGINOSA BMH10; experiment: In vitro antibacterial activity, MIC, BHI agar dilution; settings: P. aeruginosa BMH10, unit assumed
[26] = system: PSEUDOMONAS AERUGINOSA 5007; experiment: as above; settings: P. aeruginosa 5007, unit assumed
[27] = system: PSEUDOMONAS AERUGINOSA K799/WT; experiment: as above; settings: P. aeruginosa K799/WT, unit assumed
[28] = system: PSEUDOMONAS CEPACIA 296I; experiment: as above; settings: P. cepacia 296I, unit assumed
[29] = system: PSEUDOMONAS AERUGINOSA DPHD-5263; experiment: as above; settings: P. aeruginosa DPHD-5263, unit assumed
[30] = system: PSEUDOMONAS AERUGINOSA DPHD-2862; experiment: as above; settings: P. aeruginosa DPHD-2862, unit assumed
[31] = system: CANDIDA ALBICANS CCH 442; experiment: as above; settings: C. albicans CCH 442, unit assumed
[32] = system: MYCOBACTERIUM SMEGMATIS ATCC 114; experiment: as above; settings: M. smegmatis ATCC 114, unit assumed
[33] = system: PSEUDOMONAS AERUGINOSA K799/61; experiment: as above; settings: P. aeruginosa K799/61, unit assumed

| Compound | MIC [1] [µg/mL] | MIC [3] [µg/mL] | MIC [4] [µg/mL] | MIC [5] [µg/mL] | MIC [6] [µg/mL] | MIC [7] [µg/mL] | MIC [8] [µg/mL] | MIC [9] [µg/mL] | MIC [10] [µg/mL] | MIC [11] [µg/mL] | MIC [12] [µg/mL] | MIC [14] [µg/mL] | MIC [16] [µg/mL] | MIC [17] [µg/mL] | MIC [18] [µg/mL] | MIC [19] [µg/mL] | MIC [20] [µg/mL] | MIC [21] [µg/mL] | MIC [22] [µg/mL] | MIC [23] [µg/mL] | also measured |
| --- | --- | --- | --- | --- | --- | --- | --- | --- | --- | --- | --- | --- | --- | --- | --- | --- | --- | --- | --- | --- | --- |
| CC[C@H]1OC(=O)[C@H](C)C(=O)[C@H](C)[C@@H](O[C@@H]2O[C@H](C)C[C@H](N(C)C)[C@H]2O)[C@](C)(OC)C[C@@H](C)C2=NC[C@H](C)N3C(=O)O[C@@]1(C)[C@H]3[C@H]2C [Example 8] | 0.78 (≈ 1.2 µM) | > 100 | 0.78 (≈ 1.2 µM) | 0.78 (≈ 1.2 µM) | 0.78 (≈ 1.2 µM) | > 100 | 0.78 (≈ 1.2 µM) | 0.78 (≈ 1.2 µM) | 1.56 (≈ 2.39 µM) | 1.56 (≈ 2.39 µM) | 0.1 (≈ 0.153 µM) | 0.1 (≈ 0.153 µM) | 0.78 (≈ 1.2 µM) | 100 (≈ 153 µM) | 0.78 (≈ 1.2 µM) | 50 (≈ 76.7 µM) | 25 (≈ 38.4 µM) | 100 (≈ 153 µM) | 100 (≈ 153 µM) | 100 (≈ 153 µM) | MIC ([2]; S. aureus A5177, unit assumed): 0.78 µg/mL (≈ 1.2 µM); MIC [13]: 0.1 µg/mL (≈ 0.153 µM); MIC [15]: > 100 µg/mL; MIC [24]: > 100 µg/mL; MIC [25]: 100 µg/mL (≈ 153 µM); MIC [26]: > 100 µg/mL; MIC [27]: 100 µg/mL (≈ 153 µM); MIC [28]: > 100 µg/mL; MIC [29]: > 100 µg/mL; MIC [30]: > 100 µg/mL; MIC [31]: > 100 µg/mL; MIC [32]: 6.2 µg/mL (≈ 9.51 µM) |
| CC[C@H]1OC(=O)[C@H](C)[C@@H](O[C@H]2C[C@@](C)(OC)[C@@H](O)[C@H](C)O2)[C@H](C)[C@@H](O[C@@H]2O[C@H](C)C[C@H](N(C)C)[C@H]2O)[C@@H](C)C[C@@H](C)C2=NCCN3C(=O)O[C@@]1(C)[C@H]3[C@H]2C [Example 14] | 0.1 (≈ 0.13 µM) | > 100 | 0.2 (≈ 0.26 µM) | 0.2 (≈ 0.26 µM) | 0.1 (≈ 0.13 µM) | > 100 | 0.2 (≈ 0.26 µM) | 0.05 (≈ 0.0651 µM) | 0.78 (≈ 1.02 µM) | 0.78 (≈ 1.02 µM) | 0.01 (≈ 0.013 µM) | ≤ 0.005 | 1.56 (≈ 2.03 µM) | 50 (≈ 65.1 µM) | 0.39 (≈ 0.508 µM) | 50 (≈ 65.1 µM) | 50 (≈ 65.1 µM) | 100 (≈ 130 µM) | 100 (≈ 130 µM) | 25 (≈ 32.6 µM) | MIC ([2]; S. aureus A5177): 6.2 µg/mL (≈ 8.07 µM); MIC [24]: > 100 µg/mL; MIC [25]: 100 µg/mL (≈ 130 µM); MIC [26]: > 100 µg/mL; MIC [27]: 100 µg/mL (≈ 130 µM); MIC [33]: 3.1 µg/mL (≈ 4.04 µM); MIC [29]: > 100 µg/mL; MIC [30]: > 100 µg/mL; MIC [31]: > 100 µg/mL; MIC [32]: 3.1 µg/mL (≈ 4.04 µM) |
| CC[C@H]1OC(=O)[C@H](C)C(=O)[C@H](C)[C@@H](O[C@@H]2O[C@H](C)C[C@H](N(C)C)[C@H]2O)[C@](C)(OC)C[C@@H](C)C2=N[C@@H]3CN(Cc4ccccc4)C[C@@H]3N3C(=O)O[C@@]1(C)[C@H]3[C@H]2C [Example 21] | 0.78 (≈ 1.01 µM) | > 100 | 6.2 (≈ 8.06 µM) | 0.78 (≈ 1.01 µM) | 0.78 (≈ 1.01 µM) | > 100 | 0.78 (≈ 1.01 µM) | 0.2 (≈ 0.26 µM) | 3.1 (≈ 4.03 µM) | 0.78 (≈ 1.01 µM) | 0.05 (≈ 0.065 µM) | 0.01 (≈ 0.013 µM) | 0.39 (≈ 0.507 µM) | > 100 | 1.56 (≈ 2.03 µM) | 100 (≈ 130 µM) | 50 (≈ 65 µM) | > 100 | > 100 | > 100 | MIC ([2]; S. aureus A5177, unit assumed): 0.78 µg/mL (≈ 1.01 µM); MIC [13]: 0.05 µg/mL (≈ 0.065 µM); MIC [15]: 100 µg/mL (≈ 130 µM); MIC [24]: > 100 µg/mL; MIC [25]: 100 µg/mL (≈ 130 µM); MIC [26]: > 100 µg/mL; MIC [27]: > 100 µg/mL; MIC [33]: 3.1 µg/mL (≈ 4.03 µM); MIC [28]: > 100 µg/mL; MIC [29]: > 100 µg/mL; MIC [30]: > 100 µg/mL; MIC [31]: > 100 µg/mL |
